# Experimental data published in patent publication US20050215520A1, “Complex of organic medicines and beta-cyclodextrin derivatives and its preparing process” (priority 2002, published 2005).
# Tested on: not listed separately
# Assay: Critical mole ratio or critical mass ratio of medicines and beta-cyclodextrin derivative (Table 1, examples)
# Format: physicochemical
# Conditions: not given
# Method: The critical mole ratio or critical mass ratio in the present invention refers to the mole ratio and mass ratio when complex of organic medicine and beta-cyclodextrin derivatives prepared with the method of this invention is dissolved exactly in water of specified amount to form stable aqueous solution.
# The critical value of organic medicine and beta-cyclodextrin derivatives in the present invention, may be determined with the undermentioned unit test method.
# (§1) All kinds of mole ratio and mass ratio of the medicine and beta-cyclodextrin derivative is made into complex with expanding loose body according to the method of the present invention, then the set water is added into the a variety of compounding ratio of complex, and by observing properties of the solution, the compounding ratio of exactly dissolving in water and with stable property, acts as the critical mole ratio or critical mass ratio of the present invention.
# The critical mole ratio and critical mass ratio in the present invention may be determined with the undermentioned saturated solution method.
# Weighing accurately medicine, and placing in the container, and gradually adding beta-cyclodextrin aqueous solution metered accurately with agitation, until the medicine is dissolved exactly and completely in this aqueous solution. Calculate both mass number here and convert it to mole number. Repeat the above-mentioned test, and get the mean mole number of repeated test, and calculate critical mole ratio with the undermentioned formula: Critical mole ratio of medicine=mean mole number of beta-cyclodextrin/mean mole number of medicine
row,Compound,Critical value mole ratio
1,CN1C(=O)CN=C(c2ccccc2)c2cc(Cl)ccc21 [Diazepam],3
2,C[C@]12CC[C@H]3[C@@H](CCC4=CC(=O)CC[C@@]43C)[C@@H]1CC[C@@H]2O [testosterone],4

# Same assay, conditions: beta-cyclodextrin derivative (hydroxide propyl beta-cyclodextrin in the examples) to medicine; complex dissolves exactly in water to stable solution
Compound,Critical value mole ratio,Critical value Mass ratio
CC1(C)S[C@@H]2[C@H](NC(=O)[C@H](N)c3ccccc3)C(=O)N2[C@H]1C(=O)O [Ampicilline],3,
C[C@@H]1CC[C@H]2[C@@H](C)C(=O)O[C@@H]3O[C@@]4(C)CC[C@@H]1[C@]32OO4 [Artemisinin],5,
C[C@H]1[C@H](OC(=O)CCC(=O)O)O[C@@H]2O[C@@]3(C)CC[C@H]4[C@H](C)CC[C@@H]1[C@@]24OO3 [Artesunate],3,
CC[C@H]1OC(=O)[C@H](C)[C@@H](O[C@H]2C[C@@](C)(OC)[C@@H](O)[C@H](C)O2)[C@H](C)[C@@H](O[C@@H]2O[C@H](C)C[C@H](N(C)C)[C@H]2O)[C@](C)(O)C[C@@H](C)CN(C)[C@H](C)[C@@H](O)[C@]1(C)O [Azithromycin],16,
CN(Cc1cc(Br)cc(Br)c1N)C1CCCCC1 [Bromhexine],3,
CS(=O)(=O)OCCCCOS(C)(=O)=O [Busulfan],5,
O=C(O)c1cn(C2CC2)c2cc(N3CCNCC3)c(F)cc2c1=O [Ciprofloxacin],5,
CC[C@H]1OC(=O)[C@H](C)[C@@H](O[C@H]2C[C@@](C)(OC)[C@@H](O)[C@H](C)O2)[C@H](C)[C@@H](O[C@@H]2O[C@H](C)C[C@H](N(C)C)[C@H]2O)[C@](C)(OC)C[C@@H](C)C(=O)[C@H](C)[C@@H](O)[C@]1(C)O [Clarithromycin],18,
Clc1ccccc1C(c1ccccc1)(c1ccccc1)n1ccnc1 [Clotrimazole],4,
CC(CN1c2ccccc2S(=O)(=O)c2ccccc21)N(C)C (centres unmarked) [Dioxopromethazine],,2
CC[C@H]1OC(=O)[C@H](C)[C@@H](O[C@H]2C[C@@](C)(OC)[C@@H](O)[C@H](C)O2)[C@H](C)[C@@H](O[C@@H]2O[C@H](C)C[C@H](N(C)C)[C@H]2O)[C@](C)(O)C[C@@H](C)C(=O)[C@H](C)[C@@H](O)[C@]1(C)O [Erythromycin],6,
Clc1ccc2c(c1)C(c1ccccc1)=NCc1nncn1-2 [Estazolam],,20
COc1cc([C@@H]2c3cc4c(cc3[C@@H](O[C@@H]3O[C@@H]5CO[C@@H](C)O[C@H]5[C@H](O)[C@H]3O)[C@H]3COC(=O)[C@H]23)OCO4)cc(OC)c1O [Etoposide],10,
CC(C)Cc1ccc(C(C)C(=O)O)cc1 (centres unmarked) [Ibuprofen],,8
CC(=O)N1CCN(c2ccc(OCC3COC(Cn4ccnc4)(c4ccc(Cl)cc4Cl)O3)cc2)CC1 (centres unmarked) [Ketoconazole],3,
CCN1C[C@]2(OC(=O)c3ccccc3NC(C)=O)CC[C@H](OC)[C@@]34[C@@H]2C[C@@H]([C@@H]13)[C@@]1(O)C[C@H](OC)[C@H]2C[C@@H]4[C@]1(O)[C@H]2OC [Lappaconitine],2,
O=C1Nc2ccc(Cl)cc2C(c2ccccc2Cl)=NC1O (centres unmarked) [Lorazepam],3,
CC[C@H](C)C(=O)O[C@H]1C[C@@H](C)C=C2C=C[C@H](C)[C@H](CC[C@@H]3C[C@@H](O)CC(=O)O3)[C@H]21 [Lovastatin],26,
Cc1ncc([N+](=O)[O-])n1CCO [Metronidazole],,9
Clc1ccc(COC(Cn2ccnc2)c2ccc(Cl)cc2Cl)c(Cl)c1 (centres unmarked) [Miconazole],6,
CN1C(C(=O)Nc2ccccn2)=C(O)c2ccccc2S1(=O)=O [Piroxicam],,15
C[C@]12CC[C@H](O)CC1=CC[C@@H]1[C@@H]2CC[C@]2(C)C(=O)CC[C@@H]12 [Prasterone],3,
COc1cc2c(cc1OC)[C@@H]1Cc3ccc(OC)c(OC)c3CN1CC2 [Rotundine],1,
CC[C@H]1OC(=O)[C@H](C)[C@@H](O[C@H]2C[C@@](C)(OC)[C@@H](O)[C@H](C)O2)[C@H](C)[C@@H](O[C@@H]2O[C@H](C)C[C@H](N(C)C)[C@H]2O)[C@](C)(O)C[C@@H](C)/C(=N\OCOCCOC)[C@H](C)[C@@H](O)[C@]1(C)O [Roxithromycin],18,
CC(C)CC(N(C)C)C1(c2ccc(Cl)cc2)CCC1 (centres unmarked) [Sibutramine],,2
CCCc1nn(C)c2c(=O)[nH]c(-c3cc(S(=O)(=O)N4CCN(C)CC4)ccc3OCC)nc12 [Sildenafil],2,
COc1cc(Cc2cnc(N)nc2N)cc(OC)c1OC [TMP],3,
CC/C(=C(\c1ccccc1)c1ccc(OCCN(C)C)cc1)c1ccccc1 [Tamoxifen],2,

Compound,Critical value mole ratio,Critical value Mass ratio
CC(=O)O[C@H]1C(=O)[C@@]2(C)[C@H]([C@H](OC(=O)c3ccccc3)[C@]3(O)C[C@H](OC(=O)[C@H](O)[C@@H](NC(=O)c4ccccc4)c4ccccc4)C(C)=C1C3(C)C)[C@]1(OC(C)=O)CO[C@@H]1C[C@@H]2O [Taxol],100,
CCS(=O)(=O)CCn1c([N+](=O)[O-])cnc1C [Tinidazole],,6.5
Cc1ccc(-c2nc3ccc(C)cn3c2CC(=O)N(C)C)cc1 [Zolpidem],2,
CC1(C)C2CCC1(C)C(O)C2 (centres unmarked) [borneol],,6
Cn1c(=O)c2c(ncn2C)n(C)c1=O [caffein],,4
CC12CCC(CC1=O)C2(C)C (centres unmarked) [camphor],,8
CC(C)(O)C(Cl)(Cl)Cl [chlorbutanol],,6
OC(CCCN1CCCCC1)(c1ccccc1)c1ccccc1 [difenidol],1,
NC(N)=Nc1nc(CSCCC(N)=NS(N)(=O)=O)cs1 [famotidine],,9
Cc1ccc(S(=O)(=O)NC(=O)NN2CC3CCCC3C2)cc1 (centres unmarked) [gliclazide],2,
CN1CCC(=C2c3ccccc3CC(=O)c3sccc32)CC1 [ketotifen],,4
Cc1nc(C)c(C)nc1C [ligustrazine],,12
O=C(O)CCCC[C@@H]1CCSS1 [lipoic acid],1,
CC1CCC(C(C)C)C(O)C1 (centres unmarked) [menthol],2,
CCOC(=O)[N-]c1cn(N2CCOCC2)n[o+]1 [molsidomine],,11
CCn1cc(C(=O)O)c(=O)c2cc(F)c(N3CCNCC3)cc21 [norfloxacin],,30
CC(=O)Nc1ccc(O)cc1 [paracetamol],,3
C[C@]12C=CC(=O)C=C1CC[C@@H]1[C@@H]2C(=O)C[C@@]2(C)[C@H]1CC[C@]2(O)C(=O)CO [prednisone],4,
CC(=O)S[C@@H]1CC2=CC(=O)CC[C@]2(C)[C@H]2CC[C@@]3(C)[C@@H](CC[C@@]34CCC(=O)O4)[C@H]12 [spironolactone],3,
Nc1ccc(S(=O)(=O)Nc2ncccn2)cc1 [sulfadiazine],3,
Cc1noc(NS(=O)(=O)c2ccc(N)cc2)c1C [sulfafurazole],2,
Cc1cc(NS(=O)(=O)c2ccc(N)cc2)no1 [sulfamethoxazole],2,
NC(=O)CCCCC1CCSS1 (centres unmarked) [thioctamide],,7
COc1cc(C=O)ccc1O [vanillin],,9
Artemoter,8,
Medicamycin,8,
Oryzanol,,38

# Tested on: not given
# Assay: not given
# Conditions: medicine alone; cited from earlier work
row,Compound,water solubility of the medicine
1,C[C@@H]1CC[C@H]2[C@@H](C)C(=O)O[C@@H]3O[C@@]4(C)CC[C@@H]1[C@]32OO4 [Artemisinin],hardly water-soluble

# Tested on: not listed separately
# Assay: Critical value of complex by unit test method (complexes of various compounding ratio dissolved in set water, solution properties observed)
# Format: physicochemical
# Conditions: hydroxide propyl beta-cyclodextrin to medicine
# Method: as §1, with “The critical value of organic medicine and beta-cyclodextrin derivatives in the present invention, may be determined with the undermentioned unit test method. All” for “All”
Compound,critical mass ratio of complex,critical mole ratio of complex
C[C@@H]1CC[C@H]2[C@@H](C)C(=O)O[C@@H]3O[C@@]4(C)CC[C@@H]1[C@]32OO4 [Artemisinin],about 28,about 5

# Tested on: not listed separately
# Assay: Critical mole ratio by saturated solution method
# Format: physicochemical
# Conditions: 40% hydroxide propyl beta-cyclodextrin aqueous solution, mean of 3 tests
# Method: The critical mole ratio and critical mass ratio in the present invention may be determined with the undermentioned saturated solution method. Weighing accurately medicine, and placing in the container, and gradually adding beta-cyclodextrin aqueous solution metered accurately with agitation, until the medicine is dissolved exactly and completely in this aqueous solution. Calculate both mass number here and convert it to mole number. Repeat the above-mentioned test, and get the mean mole number of repeated test, and calculate critical mole ratio with the undermentioned formula: Critical mole ratio of medicine=mean mole number of beta-cyclodextrin/mean mole number of medicine For example, critical mole ratio of Artemisinin and hydroxide propyl beta-cyclodextrin is measured with the undermentioned method: Weight accurately Artemisinin, and grind in tissue grinding device, and place in beaker, and gradually add 40% hydroxide propyl beta-cyclodextrin aqueous solution metered accurately while agitation, until Artemisinin is dissolved exactly and completely in this aqueous solution. Calculate both mass number here and convert it to mole number.
row,Compound,critical mole ratio
1,C[C@@H]1CC[C@H]2[C@@H](C)C(=O)O[C@@H]3O[C@@]4(C)CC[C@@H]1[C@]32OO4 [Artemisinin],about 5

# Tested on: plasmodium
# Assay: Medicine efficacy on killing plasmodium in mice infected plasmodium
# Format: in vivo
# Conditions: ED90 of original medicine p.o. relative to its complex iv (complex = 1)
row,Compound,ED90 comparison p.o./iv
1,C[C@@H]1CC[C@H]2[C@@H](C)C(=O)O[C@@H]3O[C@@]4(C)CC[C@@H]1[C@]32OO4 [Artemisinin],2.13
2,C[C@H]1[C@H](OC(=O)CCC(=O)O)O[C@@H]2O[C@@]3(C)CC[C@H]4[C@H](C)CC[C@@H]1[C@@]24OO3 [Artesunate],1.88

# Same assay, conditions: Plasmodium, po, read-out: efficacy (killing) ED50
row,Compound,ED50 [mg/kg]
1,C[C@H]1[C@H](OC(=O)CCC(=O)O)O[C@@H]2O[C@@]3(C)CC[C@H]4[C@H](C)CC[C@@H]1[C@@]24OO3 [Artesunate],9.96

# Same assay, conditions: mice infected plasmodium, route of administration po.; read-out: efficacy (killing) ED50
row,Compound,ED50 [mg/kg]
1,C[C@@H]1CC[C@H]2[C@@H](C)C(=O)O[C@@H]3O[C@@]4(C)CC[C@@H]1[C@]32OO4 [Artemisinin],19
